This passage reports Ki results from patent US20060166985A1, “Pyrrolydin-2-one derivatives as inhibitors of thrombin and factor xa” (priority 2002, published 2006).

Where only a bound is given, the exact number is not on record here.

This test concerns the target human Thrombin (Homo sapiens, UniProt P00734). Put plainly: In vitro assay for inhibition of Thrombin (chromogenic or fluorogenic assay). Type of test: biochemical. The settings on record: Example 2 chromogenic assay, other Examples fluorogenic assay, read-out: thrombin inhibitory Ki. As for the experimental part:
Thrombin inhibitory activity is measured by the ability to inhibit human α-thrombin in a chromogenic assay using N-p-tosyl-gly-pro-lys p-nitroanilide as the chromogenic substrate, or in a fluorogenic assay using Rhodamine 110, bis-(CBZ-L-valyl-L-prolyl-L-arginine amide) as the fluorogenic substrate.
The compound was diluted from a 10 mM stock solution in dimethylsulfoxide at appropriate concentrations. Assay was performed at room temperature using buffer consisting of: 50 mM HEPES, 150 mM NaCl, 5 mM CaCl2, 0.1% PEG, pH 7.4. containing human Thrombin (final conc. of 1 nM). Compound and enzyme were preincubated for 15 min prior to addition of the substrate (final conc. of 100 μM). The reaction was stopped after 30 min with the addition of soybean trypsin inhibitor or H-D-PHE-PRO-ARG-Chloromethylketone. […] To obtain IC50 values the data were analysed using ActivityBase® and XLfit®.
Compounds were diluted from a 10 mM stock solution in dimethylsulfoxide at appropriate concentrations. Assay was performed at room temperature using buffer consisting of: 50 mM HEPES, 150 mM NaCl, 5 mM CaCl2, 0.1% PEG, pH 7.4. containing human Thrombin (final conc. Of 0.2 nM). Compound and enzyme were preincubated for 15 min prior to addition of the substrate (final conc. of 10 μM). The reaction was stopped after 3 hrs with the addition of H-D-PHE-PRO-ARG-Chloromethylketone. […] To obtain IC50 values the data were analysed using ActivityBase® and XLfit®.
In the case of `O=C([C@H](CCN1CCOCC1)N1CC[C@H](NS(=O)(=O)CCc2ccc(Cl)s2)C1=O)N1CCOCC1` [Example 95, 2-(5-chloro-2-thienyl)-N-{(3S)-1-[(1S)-3-(4-morpholinyl)-1-(4-morpholinylcarbonyl)propyl]-2-oxo-3-pyrrolidinyl}ethanesulfonamide], the Ki (as a rule, the equilibrium dissociation constant of an inhibitor or competing ligand from its target) is less than 100 nM.

Regarding `Cc1noc(C[C@@H](C(=O)N2CCOCC2)N2CC[C@H](NS(=O)(=O)CC(C)c3ccc(Cl)s3)C2=O)n1` (stereo partly drawn) [Example 60, 2-(5-chloro-2-thienyl)-N-{(3S)-1-[(1S)-1-[(3-methyl-1,2,4-oxadiazol-5-yl)methyl]-2-(4-morpholinyl)-2-oxoethyl]-2-oxo-3-pyrrolidinyl}-1-propanesulfonamide], the Ki was less than 50 nM.

As for `CS(=O)(=O)CC[C@@H](C(=O)N1CCOCC1)N1CC[C@H](NS(=O)(=O)CCc2ccc(Cl)cc2)C1=O` [Example 99, 2-(4-chlorophenyl)-N-{(3S)-1-[(1S)-3-(methylsulfonyl)-1-(4-morpholinylcarbonyl)propyl]-2-oxo-3-pyrrolidinyl}ethanesulfonamide], the inhibition constant (Ki) was less than 200 nM.

On to `C[C@@H](C(=O)N1CCOCC1)N1CC[C@H](NS(=O)(=O)CC2OCc3cc(Cl)ccc32)C1=O` (stereo partly drawn) [Example 66, 1-(5-chloro-1,3-dihydro-2-benzofuran-1-yl)-N-{(3S)-1-[(1S)-1-methyl-2-(4-morpholinyl)-2-oxoethyl]-2-oxo-3-pyrrolidinyl}methanesulfonamide], for which the Ki is less than 50 nM.

On to `O=C(O)C[C@@H](C(=O)N1CCOCC1)N1CC[C@H](NS(=O)(=O)CCc2ccc(Cl)s2)C1=O` [Example 46], for which the Ki is less than 200 nM.

With `O=C(C[C@@H](C(=O)N1CCOCC1)N1CC[C@H](NS(=O)(=O)CCc2ccc(Cl)s2)C1=O)N1CCOCC1` [Example 31], the Ki was less than 200 nM.

Take `O=C([C@H](Cc1cccs1)N1CC[C@H](NS(=O)(=O)CCc2ccc(Cl)cc2)C1=O)N1CCOCC1` [Example 24, 2-(4-chlorophenyl)-N-{(3S)-1-[(1S)-2-morpholin-4-yl-2-oxo-1-(thien-2-ylmethyl)ethyl]-2-oxopyrrolidin-3-yl}ethanesulfonamide]: the Ki was less than 25 nM.

As for `CC(C)[C@@H](C(=O)N1CCOCC1)N1CC[C@H](NS(=O)(=O)CCc2ccc(Cl)s2)C1=O` [Example 8, 2-(5-chlorothien-2-yl)-N-{(3S)-1-[(1S)-2-methyl-1-(morpholin-4-ylcarbonyl)propyl]-2-oxopyrrolidin-3-yl}ethanesulfonamide], the Ki is less than 10 nM.

For `C[C@@H](C(=O)N1CCOCC1)N1CC[C@H](N(CC(N)=O)S(=O)(=O)CCc2ccc(Cl)s2)C1=O` [Example 20, N^2-{[2-(5-Chlorothien-2-yl)ethyl]sulfonyl}-N^2-{(3S)-1-[(1S)-1-methyl-2-morpholin-4-yl-2-oxoethyl]-2-oxopyrrolidin-3-yl}glycinamide], the Ki is less than 25 nM.

For `O=C([C@H](c1cccs1)N1CC[C@H](NS(=O)(=O)CCc2ccc(Cl)cc2)C1=O)N1CCOCC1` [Example 74, 2-(4-chlorophenyl)-N-{(3S)-1-[(1R)-2-(4-morpholinyl)-2-oxo-1-(2-thienyl)ethyl]-2-oxo-3-pyrrolidinyl}ethanesulfonamide], the Ki is less than 100 nM.

For `CO[C@H](C)[C@@H](C(=O)N1CCOCC1)N1CC[C@H](NS(=O)(=O)CCc2ccc(Cl)s2)C1=O` [Example 17, 2-(5-chlorothien-2-yl)-N-{(3S)-1-[(1S,2R)-2-methoxy-1-(morpholin-4-ylcarbonyl)propyl]-2-oxopyrrolidin-3-yl}ethanesulfonamide], the Ki is less than 10 nM.

Take `O=C([C@H](CCN1CCCCC1)N1CC[C@H](NS(=O)(=O)CCc2ccc(Cl)s2)C1=O)N1CCOCC1` [Example 94, 2-(5-chloro-2-thienyl)-N-{(3S)-1-[(1S)-1-(4-morpholinylcarbonyl)-3-(1-piperidinyl)propyl]-2-oxo-3-pyrrolidinyl}ethanesulfonamide]: the Ki is less than 100 nM.

Regarding `C[C@@H](C(=O)N1CCOCC1)N1CC[C@H](NS(=O)(=O)CCc2ccc(Cl)cc2Cl)C1=O` [Example 42, 2-(2,4-dichlorophenyl)-N-{(3S)-1-[(1S)-1-methyl-2-morpholin-4-yl-2-oxoethyl]-2-oxopyrrolidin-3-yl}ethanesulfonamide], the Ki is less than 200 nM.

Take `CC[C@H](C)[C@@H](C(=O)N1CCOCC1)N1CC[C@H](NS(=O)(=O)CC(=O)c2ccc(Cl)cc2)C1=O` [Example 51, 2-(4-chlorophenyl)-N-{(3S)-1-[(1S,2S)-2-methyl-1-(4-morpholinylcarbonyl)butyl]-2-oxo-3-pyrrolidinyl}-2-oxoethanesulfonamide]: the Ki was less than 50 nM.

Turning to `Cn1cnc(C[C@@H](C(=O)N2CCOCC2)N2CC[C@H](NS(=O)(=O)CCc3ccc(Cl)s3)C2=O)n1` [Example 80, 2-(5-chloro-2-thienyl)-N-{(3S)-1-[(1S)-1-[(1-methyl-1H-1,2,4-triazol-3-yl)methyl]-2-(4-morpholinyl)-2-oxoethyl]-2-oxo-3-pyrrolidinyl}ethanesulfonamide], the Ki was less than 50 nM.

Take `COC[C@@H](C(=O)N1CCOCC1)N1CC[C@H](NS(=O)(=O)CC2COc3cc(Cl)ccc32)C1=O` (stereo partly drawn) [Example 65, 1-(6-chloro-2,3-dihydro-1-benzofuran-3-yl)-N-{(3S)-1-[(1S)-1-[(methyloxy)methyl]-2-(4-morpholinyl)-2-oxoethyl]-2-oxo-3-pyrrolidinyl}methanesulfonamide]: the Ki is less than 100 nM.

On to `C/C(=C\S(=O)(=O)N[C@H]1CCN([C@H](C(=O)N2CCOCC2)C(C)C)C1=O)c1ccc(Cl)s1` [Example 9, (1E)-2-(5-chlorothien-2-yl)-N-{(3S)-1-[(1S)-2-methyl-1-(morpholin-4-ylcarbonyl)propyl]-2-oxopyrrolidin-3-yl}prop-1-ene-1-sulfonamide], for which the Ki was less than 10 nM.

With `CN(C)CC[C@@H](C(=O)N1CCOCC1)N1CC[C@H](NS(=O)(=O)CCc2ccc(Cl)s2)C1=O` [Example 93, 2-(5-chloro-2-thienyl)-N-{(3S)-1-[(1S)-3-(dimethylamino)-1-(4-morpholinylcarbonyl)propyl]-2-oxo-3-pyrrolidinyl}ethanesulfonamide], the Ki is less than 100 nM.

Turning to `C[C@@H](C(=O)N1CCOCC1)N1CC[C@H](NS(=O)(=O)/C=C/c2ccc(Cl)cc2)C1=O` [(E)-2-(4-chlorophenyl)-N-{(3S)-1-[(1S)-1-methyl-2-morpholin-4-yl-2-oxoethyl]-2-oxopyrrolidin-3-yl}ethenesulfonamide, reference compound], the Ki was greater than 200 nM.

`CC[C@H](C)[C@@H](C(=O)N1CCOCC1)N1CC[C@H](NS(=O)(=O)/C=C(\C)c2ccc(Cl)s2)C1=O` [Example 11, (1E)-2-(5-chlorothien-2-yl)-N-{(3S)-1-[(1S,2S)-2-methyl-1-(morpholin-4-ylcarbonyl)butyl]-2-oxopyrrolidin-3-yl}prop-1-ene-1-sulfonamide]: the Ki is less than 10 nM.

`O=C([C@H](Cc1ccccc1)N1CC[C@H](NS(=O)(=O)CCc2ccc(Cl)s2)C1=O)N1CCOCC1` [Example 13, N-{(3S)-1-[(1S)-1-benzyl-2-morpholin-4-yl-2-oxoethyl]-2-oxopyrrolidin-3-yl}-2-(5-chlorothien-2-yl)ethanesulfonamide]: the Ki was less than 25 nM.

For the compound `CCSC[C@@H](C(=O)N1CCOCC1)N1CC[C@H](NS(=O)(=O)CCc2ccc(Cl)s2)C1=O` [Example 75, 2-(5-chloro-2-thienyl)-N-{(3S)-1-[(1R)-1-((ethylthio)methyl]-2-(4-morpholinyl)-2-oxoethyl]-2-oxo-3-pyrrolidinyl}ethanesulfonamide], the Ki was less than 50 nM.

As for `C[C@@H](C(=O)N1CCOCC1)N1CC[C@H](NS(=O)(=O)CC(F)(F)c2ccc(Cl)cc2)C1=O` [Example 27, 2-(4-chlorophenyl)-2,2-difluoro-N-{(3S)-1-[(1S)-1-methyl-2-morpholin-4-yl-2-oxoethyl]-2-oxopyrrolidin-3-yl}ethanesulfonamide], the Ki is less than 25 nM.

In the case of `C/C(=C\S(=O)(=O)N[C@H]1CCN([C@@H](C)C(=O)N2CCOCC2)C1=O)c1ccc(Cl)cc1` [Example 3, (1E)-2-(4-chlorophenyl)-N-{(3S)-1-[(1S)-1-methyl-2-morpholin-4-yl-2-oxoethyl]-2-oxopyrrolidin-3-yl}prop-1-ene-1-sulfonamide], the Ki is less than 25 nM.

On to `CCOC[C@@H](C(=O)N1CCOCC1)N1CC[C@H](NS(=O)(=O)CCc2ccc(Cl)cn2)C1=O` [Example 49, 2-(5-chloro-2-pyridinyl)-N-{(3S)-1-[(1S)-1-[(ethyloxy)methyl]-2-(4-morpholinyl)-2-oxoethyl]-2-oxo-3-pyrrolidinyl}ethanesulfonamide], for which the Ki is less than 25 nM.

On to `Cn1ncnc1C[C@@H](C(=O)N1CCOCC1)N1CC[C@H](NS(=O)(=O)CCc2ccc(Cl)s2)C1=O` [Example 81, 2-(5-chloro-2-thienyl)-N-{(3S)-1-[(1S)-1-[(1-methyl-1H-1,2,4-triazol-5-yl)methyl]-2-(4-morpholinyl)-2-oxoethyl]-2-oxo-3-pyrrolidinyl}ethanesulfonamide], for which the Ki is less than 100 nM.

`CNC(=O)CN([C@H]1CCN([C@@H](COC)C(=O)N2CCOCC2)C1=O)S(=O)(=O)CCc1ccc(Cl)s1` [Example 98, N^2-{(2-(5-chloro-2-thienyl)ethyl]sulfonyl}-N^1-methyl-N^2-{(3S)-1-[(1S)-1-[(methyloxy)methyl]-2-(4-morpholinyl)-2-oxoethyl]-2-oxo-3-pyrrolidinyl}glycinamide]: the Ki was less than 10 nM.
